How the values were obtained:
[1] = target: T1, TBK1 (Homo sapiens, UniProt Q9UHD2); assay: purified enzyme inhibition (pIC50; assay details not given); type: biochemical
T1 sequence (Q9UHD2 1-729): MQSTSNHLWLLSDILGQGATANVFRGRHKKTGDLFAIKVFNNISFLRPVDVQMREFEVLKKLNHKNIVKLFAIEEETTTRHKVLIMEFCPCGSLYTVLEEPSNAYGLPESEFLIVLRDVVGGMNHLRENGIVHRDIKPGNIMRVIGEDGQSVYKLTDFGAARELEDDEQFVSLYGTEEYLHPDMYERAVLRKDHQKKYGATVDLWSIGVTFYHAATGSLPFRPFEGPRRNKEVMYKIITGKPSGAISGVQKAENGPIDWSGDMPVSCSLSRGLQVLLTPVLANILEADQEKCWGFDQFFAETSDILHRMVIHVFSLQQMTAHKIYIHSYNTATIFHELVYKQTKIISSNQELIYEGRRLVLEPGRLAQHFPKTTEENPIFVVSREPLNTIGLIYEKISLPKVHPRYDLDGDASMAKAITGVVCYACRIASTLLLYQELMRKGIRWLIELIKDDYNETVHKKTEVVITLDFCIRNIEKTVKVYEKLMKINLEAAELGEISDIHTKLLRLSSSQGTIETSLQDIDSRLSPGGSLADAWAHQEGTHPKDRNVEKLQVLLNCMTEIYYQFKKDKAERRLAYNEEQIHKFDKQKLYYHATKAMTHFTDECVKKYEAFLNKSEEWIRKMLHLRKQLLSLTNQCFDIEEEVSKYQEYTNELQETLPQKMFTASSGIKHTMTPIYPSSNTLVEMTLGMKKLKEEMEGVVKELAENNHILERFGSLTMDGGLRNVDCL

[2] = target: T2, IKKε (Homo sapiens, UniProt Q14164); assay: as above; type: biochemical
T2 construct: gene IKBKE
T2 sequence (Q14164 1-716): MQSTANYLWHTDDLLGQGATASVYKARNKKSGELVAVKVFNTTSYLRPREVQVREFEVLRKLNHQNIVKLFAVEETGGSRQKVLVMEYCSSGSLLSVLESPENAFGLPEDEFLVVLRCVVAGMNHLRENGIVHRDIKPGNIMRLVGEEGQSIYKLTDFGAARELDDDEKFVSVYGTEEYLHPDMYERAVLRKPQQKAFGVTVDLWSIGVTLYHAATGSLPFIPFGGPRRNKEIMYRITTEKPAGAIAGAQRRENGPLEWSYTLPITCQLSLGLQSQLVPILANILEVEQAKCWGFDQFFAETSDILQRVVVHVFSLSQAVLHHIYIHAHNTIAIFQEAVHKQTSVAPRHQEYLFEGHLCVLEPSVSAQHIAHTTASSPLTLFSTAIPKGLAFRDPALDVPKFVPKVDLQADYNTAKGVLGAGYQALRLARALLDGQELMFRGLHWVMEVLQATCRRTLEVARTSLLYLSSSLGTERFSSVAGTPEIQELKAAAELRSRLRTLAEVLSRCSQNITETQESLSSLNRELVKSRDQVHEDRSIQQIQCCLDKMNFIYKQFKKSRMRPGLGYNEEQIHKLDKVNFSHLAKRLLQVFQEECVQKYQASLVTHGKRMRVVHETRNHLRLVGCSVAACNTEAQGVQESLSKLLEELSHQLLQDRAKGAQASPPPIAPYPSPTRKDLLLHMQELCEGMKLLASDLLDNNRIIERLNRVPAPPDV

IC50 [1]: 0.0126 µM
IC50 [2]: 0.0158 µM
SMILES: N#Cc1cc(-c2ccnc(Nc3ccc(NC(=O)CN4CCOCC4)nc3)n2)cnc1N1CC[C@H](F)C1 [DMX3433]
